From patent US10736968B2, “Cellular signalling inhibitors, their formulations and methods thereof” (INVICTUS ONCOLOGY PVT. LTD., priority 2016, dated 2020)

Assays:
CSF1R = target: T1, CSF1R (Mus musculus, UniProt P09581); test: CSF1R phosphorylation in RAW264.7 cells after CSF-1 stimulation (Western blot); type: cell-based; conditions: 67 nM, different time points, then CSF1 10 ng/ml for 20 min
T1 construct: endogenous in cells
T1 sequence (P09581 20-977): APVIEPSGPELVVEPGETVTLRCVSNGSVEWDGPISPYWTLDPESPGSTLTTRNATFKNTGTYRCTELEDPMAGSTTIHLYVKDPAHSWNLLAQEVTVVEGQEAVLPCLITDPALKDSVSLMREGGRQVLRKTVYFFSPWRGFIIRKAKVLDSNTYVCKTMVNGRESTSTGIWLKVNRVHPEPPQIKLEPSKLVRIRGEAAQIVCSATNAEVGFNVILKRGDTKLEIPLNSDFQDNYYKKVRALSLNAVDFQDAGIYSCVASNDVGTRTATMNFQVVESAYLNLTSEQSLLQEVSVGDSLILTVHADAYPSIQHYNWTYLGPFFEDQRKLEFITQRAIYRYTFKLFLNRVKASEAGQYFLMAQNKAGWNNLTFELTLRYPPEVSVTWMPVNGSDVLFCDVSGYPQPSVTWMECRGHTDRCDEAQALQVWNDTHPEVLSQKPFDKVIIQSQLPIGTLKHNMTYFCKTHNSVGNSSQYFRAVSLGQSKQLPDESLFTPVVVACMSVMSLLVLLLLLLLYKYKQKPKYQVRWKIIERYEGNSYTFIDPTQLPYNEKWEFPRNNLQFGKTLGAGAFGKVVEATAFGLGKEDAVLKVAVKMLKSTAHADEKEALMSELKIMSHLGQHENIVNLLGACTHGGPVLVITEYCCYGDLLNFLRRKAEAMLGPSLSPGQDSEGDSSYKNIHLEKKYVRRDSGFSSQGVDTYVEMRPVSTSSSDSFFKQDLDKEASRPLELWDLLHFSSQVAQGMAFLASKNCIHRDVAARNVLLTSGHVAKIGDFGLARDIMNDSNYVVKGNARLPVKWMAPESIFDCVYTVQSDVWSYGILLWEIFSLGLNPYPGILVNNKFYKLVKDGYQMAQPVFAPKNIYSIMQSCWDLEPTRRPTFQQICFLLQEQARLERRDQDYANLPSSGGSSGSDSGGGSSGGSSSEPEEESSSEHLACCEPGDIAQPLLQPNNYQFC
Description: FIG. 2. (a) Expression of phospho-CSF1R in RAW264.7 cells at different time points post-treatment with mCSF. (b-c) Treatment with either BLZ-945 (a current gold standard small molecule inhibitor of CSF1R) or AK750 (the formulated form of BLN101) across different time points followed by CSF-1 (10 ng/mL) stimulation for 20 minutes. After stimulation the cells were washed with cold PBS and the cell lysates were collected.
Activity Studies of Compound of Formula I • Efficacy of BLN101 vs BLZ945 on the ability to inhibit CSF1R in vitro is studied. RAW264.7 cells are treated with BLZ945 (67 nM) or BLN101 (67 nM) for different time points, at the end of which the cells were exposed to CSF1 (10 ng/ml) for 20 min. The cells were then lysed and analyzed for phosphorylated CSF1R levels. […] Efficacy of BLN101 (in formulation AK750) vs BLZ945 on increase in iNOS expression in vitro is studied. It is observed that exposure to Tumor Conditioned Media over 24 h decreases INOS levels. Measurement of the expression of iNOS in RAW264.7 cells at different time points after treatment with B-16-tumour conditioned media followed by BLZ-945 or BLN101 (as AK750 formulation) treatment across different time points. […] At different time-points, the cells are harvested and analyzed the population for M1 (MHCII+, CD86+, CD80+) or M2 (CD206+) markers using fluorescence activated cell sorting (FIG. 5d). […]

AKT-mTOR-p70S6K pathway = test: Downstream signaling in macrophages after drug washout and MCSF exposure (Western blot); type: cell-based; conditions: 4 hours drug, washout 7 h or 48 h, MCSF 2 h

Structure (SMILES)	inhibition of CSF1R (phosphorylated CSF1R levels) (CSF1R)	inhibition of CSF1R (phosphorylated CSF1R levels) (CSF1R; listed as BLZ101)	AKT-mTOR-p70S6K downstream signaling (AKT-mTOR-p70S6K pathway)
CNC(=O)c1cc(Oc2ccc3nc(NC4CCCC[C@H]4OC(=O)CCC(=O)O[C@H]4CC[C@@]5(C)C(=CC[C@H]6[C@@H]7CC[C@H](C(C)CCCC(C)C)[C@@]7(C)CC[C@@H]65)C4)sc3c2)ccn1 (stereo in doubt) [BLN101]	sustained and statistically significantly greater inhibition of CSF1R as compared with BLZ945	potent inhibitor of CSF1R	–
CNC(=O)c1cc(Oc2ccc3nc(N[C@@H]4CCCC[C@H]4O)sc3c2)ccn1 [BLZ-945]	–	–	not by BLZ945 and PLX3397
